In US5652247A, “Carbostyril derivatives” (Otsuka Pharmaceutical Co., Ltd, priority 1989, dated 1997) one finds IC50 data, which are given here for two compounds.

Usually IC50 stands for the midpoint of a concentration-inhibition curve.

The assay has as its target T1, V1 receptor (Rattus norvegicus, UniProt P30560).
T1 construct: rat liver plasma membrane preparations; from tissue; host or cells: rat liver plasma membranes
In words: V1 receptor binding assay. The settings on record: [H]^3-Arg-vasopressin 2×10^-10 M, rat liver plasma membrane, 37° C., 10 minutes, pH 8.0.

T1 sequence (P30560 whole entry): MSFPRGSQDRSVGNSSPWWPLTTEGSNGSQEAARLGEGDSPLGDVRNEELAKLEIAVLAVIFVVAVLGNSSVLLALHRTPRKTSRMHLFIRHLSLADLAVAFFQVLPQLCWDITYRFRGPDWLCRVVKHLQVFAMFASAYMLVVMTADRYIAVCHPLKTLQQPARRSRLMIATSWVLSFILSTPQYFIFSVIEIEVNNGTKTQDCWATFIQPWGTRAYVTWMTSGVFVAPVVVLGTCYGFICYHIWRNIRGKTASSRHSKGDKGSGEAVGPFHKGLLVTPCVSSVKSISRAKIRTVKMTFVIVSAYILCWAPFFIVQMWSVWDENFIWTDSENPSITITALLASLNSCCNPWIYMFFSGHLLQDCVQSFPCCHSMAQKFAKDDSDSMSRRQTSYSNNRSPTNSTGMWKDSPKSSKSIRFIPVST

Consider `C#CCc1ccc(C(=O)N2CCC(N3C(=O)CCc4ccccc43)CC2)cc1` [Example 96, 1-[1-(4-Propargylbenzoyl)-4-piperidinyl]-3,4-dihydrocarbostyril], for which the IC50 amounted to 600 nM.
Compound `CN(C)c1ccc(S(=O)(=O)CCCCCOc2ccc(C(=O)N3CCC(N4C(=O)CCc5ccccc54)CC3)cc2)cc1` [Example 290, 1-{1-(4-[5-(4-Dimethylaminophenylsulfonyl)pentyloxy]benzoyl)-4-piperidinyl}-3,4-dihydrocarbostyril] showed a half-inhibitory concentration (IC50) of 300 nM.
